Laboratory results as given in patent US20230302031A1, “Modulators Of Purinergic Receptors and Related Immune Checkpoint For Treating Acute Respiratory Distress Syndrome” (priority 2020, published 2023).
Like-named read-outs stand apart in the source and are kept apart here.

Columns and labels:
[1] = test system: PMA-treated THP1 macrophages; assay: IL-1β release from LPS+ATP-stimulated PMA-THP1 macrophages (western blot/ELISA); format: cell-based, human; settings: for IL-1β release: 100 μM compound, 10 ng/mL LPS 3 hours + 5 mM ATP 6 hours, FIG. 6E, 6I
Experimental: (§1) Human THP-1 cells were cultured in RPMI 1640 media, supplemented with 10% FBS and differentiated by treatment for 3 hours with 100 nM phorbol-12-myristate-13-acetate (PMA, Invivogen). After 2 days, macrophage THP-1 cells were stimulated first 3 hours with ultrapure LPS from E. coli (10 ng/ml, LPS) and then stimulated for 6 hours with ATP (5 mM, Sigma) or treated with 50 ng or 20 ng of IFNg during 24 or 12 hours as indicated. Then, supernatants and cells were collected for western blot analysis.
(§2) Cells or supernatant were lysed in appropriated buffer (250 mM NaCl, 0.1% NP-40, 5 mM EDTA, 10 mM Na3VO4, 10 mM NaF, 5 mM DTT, 3 mM Na4P2O7, 1 mM EGTA, 10 mM Glycerol phosphate, 10 mM Tris-Hcl (pH=7.5) and the protease and phosphatase inhibitors (Roche)). Equal amount of supernatant or 10-40 μg of protein extracts were run on 4-12% or 10% SDS-PAGE and transferred at 4° C. onto a nitrocellulose membrane (0.2 Micron). After incubation for 2 hours at room temperature with 5% nonfat milk or BSA (Bovine Serum Albumine) in Tris-buffered saline and 0.1% Tween 20 (TBS-Tween), membranes were incubated with primary antibody at 4° C. overnight. […] The primary antibodies against. […] Western blots shown are representative of at least of three independent experiments.
Plasma serum from P2y2^+/+ and P2y2^−/− mice and supernatants harvested from PMA-stimulated THP1 macrophages that were depleted or not for P2Y2 or NLRP3, and/or stimulated with 10 ng/mL LPS during 3 hours and 5 mM ATP during 6 hours or with 20 ng/mL IFNγ, in presence or in absence of 100 μM Suramin, 100 μM OxATP, 100 μM Kaempferol or 100 μM Diquafosol at indicated times were analyzed using western blot or ELISA for IL-1β (Ebioscience) and IL-10 (BD) according to the manufacturers' instructions.

SARS-CoV-2 [2] = format: cell-based; settings: FIG. 7K; for intracellular expression of Spike: Vero E6, 24 hours, 50 μM PPADS, 100 μM OxATP, 100 μM BzATP; for ACE2 expression in response to SARS-CoV-2 infection: western blot
SARS-CoV-2 [3] = format: cell-based; settings: Vero E6, 24 hours, 50 μM PPADS, 100 μM OxATP
SARS-CoV-2 [4] = format: cell-based; settings: Vero E6, 72 hours infection, MOI 1-2, indicated concentrations, MTT
SARS-CoV-2 [5] = assay: SARS-CoV-2 replication in Vero E6 cells (RdRp and E mRNA, quantitative RT-PCR); format: cell-based; settings: 500 μM UTP, 100 μM Diquafosol, 5 μM Denufosol; for amount of RdRp and E mRNA (viral replication): Vero E6, 16 and 24 hours of infection, 50 μM PPADS, 100 μM BzATP, FIG. 2; for replication of SARS-CoV-2 and/or associated cytopathogenic effects: Vero E6, RdRp and E mRNA, Spike-positive cells, viability, FIG. 7D, 7E, 7I-7K, 12A, 12B
ACE2 [6] = format: cell-based; settings: ACE2-A549, 24 hours; same concentrations; FIG. 14B
ACE2-A549 cells = settings: ACE2-A549, 72 hours, MTT; PPADS and OxATP at 100 μM; BzATP indicated concentrations
Vero E6 cells = settings: Vero E6, 72 hours, MTT; PPADS and OxATP at 100 μM; BzATP indicated concentrations
ACE2 [7] = format: cell-based, African green monkey; settings: Vero E6, 24 hours; 500 μM UTP, 100 μM Diquafosol, 5 μM Denufosol, 50 μM PPADS, 100 μM OxATP, 100 μM BzATP; FIG. 14A
[8] = test system: PMA-treated THP1 macrophages; assay: IRF5 expression in IFNγ-stimulated PMA-THP1 macrophages (western blot); format: cell-based, human
Experimental: as §1, §2
Total cellular proteins were extracted and lysed in appropriated buffer containing 250 mM NaCl, 0.1% NP-40, 5 mM EDTA. 10 mM Na3VO4, 10 mM NaF, 5 mM DTT, 3 mM Na4P2O7, 1 mM EGTA, 10 mM Glycerol phosphate, 10 mM Tris-HCl (pH=7.5) and the protease and phosphatase inhibitors (Roche)). Then, 10-40 μg of protein extracts were run on 4-12% or 12% SDS-PAGE and transferred at 4° C. onto a nitrocellulose membrane (0.2 Micron). After 2 hours saturation at room temperature with 5% nonfat milk or BSA (Bovine Serum Albumin) in Tris-buffered saline and 0.1% Tween 20 (TBS-Tween), nitrocellulose membranes were incubated with primary antibody at 4° C. overnight. […] The primary antibodies against P2Y2 (#APR-010) and P2X7 (#APR-004) were obtained from Alomone laboratories. […]

SARS-CoV-2 [9] = assay: SARS-CoV-2 replication in ACE2-A549 cells (RdRp and E mRNA, Spike expression); format: cell-based; settings: ACE2-A549, 48 hours; 500 μM UTP, 100 μM Diquafosol, 5 μM Denufosol; FIG. 7F-H
[10] = test system: Bleomycin-induced lung inflammation; assay: Mouse model of bleomycin-induced lung inflammation; format: in vivo, C57BL/6 mice; settings: 300 μg intraperitoneally every 3 days

Compound | cytopathogenicity / cytopathogenic effects of SARS-CoV-2 (SARS-CoV-2 [4]) | amount of RdRp and E mRNA (viral replication) (SARS-CoV-2 [5]) | ACE2 membrane expression (ACE2 [6]) | ACE2 membrane expression (ACE2 [7]) | ACE2 expression in response to SARS-CoV-2 infection (SARS-CoV-2 [2]) | replication of SARS-CoV-2 and/or associated cytopathogenic effects (SARS-CoV-2 [5]) | replication of SARS-CoV-2 and/or associated cytopathogenic effects (SARS-CoV-2 [9]) | also measured
Cc1ccc(C(=O)Nc2ccc(S(=O)(=O)O)c3cc(S(=O)(=O)O)cc(S(=O)(=O)O)c23)cc1NC(=O)c1cccc(NC(=O)Nc2cccc(C(=O)Nc3cc(C(=O)Nc4ccc(S(=O)(=O)O)c5cc(S(=O)(=O)O)cc(S(=O)(=O)O)c45)ccc3C)c2)c1 [Suramin] | – | – | – | – | – | – | – | IL-1β release [1]: increased IL-1β release
Cc1nc(N=Nc2ccc(S(=O)(=O)O)cc2S(=O)(=O)O)c(COP(=O)(O)O)c(C=O)c1O [PPADS, pyridoxal-phosphate-6-azopheny-2′,4′-disulfonate] | reduced | repressed RdRp and E mRNA expression | did not change | did not change | – | – | – | intracellular expression of Spike (SARS-CoV-2 [2]): reduced; frequency of Spike-positive cells (SARS-CoV-2 [3]): reduced the frequency of Spike-positive cells; viability of uninfected cells (ACE2-A549 cells): partially affected viability; viability of uninfected cells (Vero E6 cells): partially affected viability
O=c1ccn([C@@H]2O[C@H](COP(=O)(O)OP(=O)(O)OP(=O)(O)OP(=O)(O)OC[C@H]3O[C@@H](n4ccc(=O)[nH]c4=O)[C@H](O)[C@@H]3O)[C@@H](O)[C@H]2O)c(=O)[nH]1 [Diquafosol] | exhibited inhibitory effects on cytopathogenicity | strongly reduced the amount of RdRp and E mRNA | did not change | did not change | repressed ACE2 down regulation | strongly blocked the replication of SARS-CoV-2 and/or reduced associated cytopathogenic effects | strongly blocked the replication of SARS-CoV-2 and/or reduced associated cytopathogenic effects | IL-1β release [1]: impaired IL-1β release; release of IL-1β in supernatant ([1]; indicated concentrations, 12 hours, LPS+ATP, FIG. 1B): impaired the release of IL-1β; IFNγ-mediated increase expression of IRF5 ([8]; PMA-THP1 macrophages, FIG. 6P): impaired IFNγ-mediated increase expression of IFN regulatory factor 5 (IRF5); IRF5 expression ([8]; indicated concentrations, 20 ng IFNγ 12 hours, FIG. 1D): confirmed; Bleomycin-induced lung inflammation ([10]; 50 UI bleomycin intratracheal, FIG. 17): abolishes Bleomycin-induced lung inflammation; lung lesions (CT scan) ([10]; day 20, FIG. 17A): reduces lung lesions induced by bleomycin treatment
O=c1ccn([C@@H]2O[C@H](COP(=O)(O)OP(=O)(O)OP(=O)(O)OP(=O)(O)Oc3ccccc3)[C@@H](O)[C@H]2O)c(=O)[nH]1 [MRS2768] | – | – | – | – | – | – | – | release of IL-1β in supernatant ([1]; 50 μM, 1 hour pretreatment, 10 ng/ml LPS 3 hours + 5 mM ATP 6 hours, FIG. 1A): strongly inhibited the release of IL-1β
Nc1ccn([C@H]2C[C@H](O)[C@@H](COP(=O)(O)OP(=O)(O)OP(=O)(O)OP(=O)(O)OC[C@H]3O[C@@H](n4ccc(=O)[nH]c4=O)[C@H](O)[C@@H]3O)O2)c(=O)n1 [Denufosol] | exhibited inhibitory effects on cytopathogenicity | strongly reduced the amount of RdRp and E mRNA | did not change | did not change | – | strongly blocked the replication of SARS-CoV-2 and/or reduced associated cytopathogenic effects | strongly blocked the replication of SARS-CoV-2 and/or reduced associated cytopathogenic effects | –
O=c1ccn([C@@H]2O[C@H](COP(=O)(O)OP(=O)(O)OP(=O)(O)O)[C@@H](O)[C@H]2O)c(=O)[nH]1 [UTP, Uridine 5′-triphosphate] | exhibited inhibitory effects on cytopathogenicity | strongly reduced the amount of RdRp and E mRNA | did not change | did not change | repressed ACE2 down regulation | strongly blocked the replication of SARS-CoV-2 and/or reduced associated cytopathogenic effects | strongly blocked the replication of SARS-CoV-2 and/or reduced associated cytopathogenic effects | IRF5 expression ([8]; 10 and 100 μM, 50 ng IFNγ 24 hours, FIG. 1C): decrease of IRFS expression
2′(3′)-O-(4-Benzoylbenzoyl) adenosine 5′-triphosphate [BzATP] | – | strongly enhanced viral replication | did not change | did not change | reduces ACE2 expression levels | – | – | intracellular expression of Spike (SARS-CoV-2 [2]): increase of intracellular Spike expression levels; entry of SARS-CoV2 into host cells (SARS-CoV-2 [2]; Vero E6): significantly increased the entry of SARS-CoV2 into host cells; viability of uninfected cells (ACE2-A549 cells): did not show a significant impact; viability of uninfected cells (Vero E6 cells): did not show a significant impact
